Experiments:
[1] = target: T1, Serine/threonine-protein kinase RIO3 (Homo sapiens) (UniProt O14730); test: Selectivity interaction (KinomeScan (DiscoverX)) EUB0000229b RIOK3; settings: at 10 µM
T1 sequence (whole entry): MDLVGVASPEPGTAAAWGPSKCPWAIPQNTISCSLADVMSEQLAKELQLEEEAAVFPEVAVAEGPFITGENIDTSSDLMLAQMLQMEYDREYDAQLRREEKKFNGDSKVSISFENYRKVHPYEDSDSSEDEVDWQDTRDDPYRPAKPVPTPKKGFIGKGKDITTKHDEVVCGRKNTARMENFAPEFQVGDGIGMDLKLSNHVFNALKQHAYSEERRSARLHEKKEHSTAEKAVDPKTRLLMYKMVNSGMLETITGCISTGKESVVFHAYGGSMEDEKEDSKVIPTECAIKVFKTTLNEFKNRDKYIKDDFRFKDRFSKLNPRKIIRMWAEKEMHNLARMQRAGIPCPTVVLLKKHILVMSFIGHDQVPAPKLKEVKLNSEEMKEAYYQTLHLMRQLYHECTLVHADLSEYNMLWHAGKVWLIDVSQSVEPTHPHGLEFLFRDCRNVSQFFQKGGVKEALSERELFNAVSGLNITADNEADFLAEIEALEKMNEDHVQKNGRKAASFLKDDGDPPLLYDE

[2] = target: N-lysine methyltransferase SMYD2 (Homo sapiens) (UniProt Q9NRG4); settings: at 10 µM
Sequence of N-lysine methyltransferase SMYD2 (Homo sapiens) (Q9NRG4 whole entry): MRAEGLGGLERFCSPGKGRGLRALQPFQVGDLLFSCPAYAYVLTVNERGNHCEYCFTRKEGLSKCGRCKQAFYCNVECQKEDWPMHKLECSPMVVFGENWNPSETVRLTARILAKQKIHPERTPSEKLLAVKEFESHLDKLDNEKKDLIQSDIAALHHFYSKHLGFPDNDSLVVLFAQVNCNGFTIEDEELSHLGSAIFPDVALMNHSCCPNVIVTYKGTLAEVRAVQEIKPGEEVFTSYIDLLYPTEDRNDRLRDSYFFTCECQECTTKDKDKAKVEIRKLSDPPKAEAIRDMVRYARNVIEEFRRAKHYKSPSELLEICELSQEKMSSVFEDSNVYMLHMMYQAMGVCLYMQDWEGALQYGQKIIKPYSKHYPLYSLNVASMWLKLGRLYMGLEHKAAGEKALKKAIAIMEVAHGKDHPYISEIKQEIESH

[3] = target: Tyrosine-protein kinase Lyn (Homo sapiens, UniProt P07948); test: Selectivity interaction (KinomeScan (DiscoverX)) EUB0001079a LYN; settings: at 1 µM
Sequence of Tyrosine-protein kinase Lyn (P07948 2-512 limits assumed): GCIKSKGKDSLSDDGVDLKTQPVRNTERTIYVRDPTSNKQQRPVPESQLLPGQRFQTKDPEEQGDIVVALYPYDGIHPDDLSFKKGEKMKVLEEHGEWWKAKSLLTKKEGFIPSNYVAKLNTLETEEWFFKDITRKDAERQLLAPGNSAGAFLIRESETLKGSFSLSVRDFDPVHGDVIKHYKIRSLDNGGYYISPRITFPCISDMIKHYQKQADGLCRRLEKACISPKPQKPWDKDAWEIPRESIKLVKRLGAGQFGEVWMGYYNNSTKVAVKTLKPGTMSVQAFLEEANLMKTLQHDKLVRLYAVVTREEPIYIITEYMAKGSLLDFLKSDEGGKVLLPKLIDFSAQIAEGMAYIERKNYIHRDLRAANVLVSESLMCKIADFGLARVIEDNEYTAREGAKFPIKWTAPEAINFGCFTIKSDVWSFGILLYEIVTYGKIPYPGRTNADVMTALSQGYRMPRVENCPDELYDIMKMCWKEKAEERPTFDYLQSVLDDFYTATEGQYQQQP

[4] = target: Dual specificity tyrosine-phosphorylation-regulated kinase 1A (Homo sapiens, UniProt Q13627); test: Selectivity interaction (ProQinase) EUB0000171b DYRK1A
[5] = target: T2, Serine/threonine-protein kinase D1 (Homo sapiens) (UniProt Q15139); test: Selectivity interaction (KinomeScan (DiscoverX)) EUB0001619a PRKD1; settings: at 1 µM
T2 sequence (whole entry): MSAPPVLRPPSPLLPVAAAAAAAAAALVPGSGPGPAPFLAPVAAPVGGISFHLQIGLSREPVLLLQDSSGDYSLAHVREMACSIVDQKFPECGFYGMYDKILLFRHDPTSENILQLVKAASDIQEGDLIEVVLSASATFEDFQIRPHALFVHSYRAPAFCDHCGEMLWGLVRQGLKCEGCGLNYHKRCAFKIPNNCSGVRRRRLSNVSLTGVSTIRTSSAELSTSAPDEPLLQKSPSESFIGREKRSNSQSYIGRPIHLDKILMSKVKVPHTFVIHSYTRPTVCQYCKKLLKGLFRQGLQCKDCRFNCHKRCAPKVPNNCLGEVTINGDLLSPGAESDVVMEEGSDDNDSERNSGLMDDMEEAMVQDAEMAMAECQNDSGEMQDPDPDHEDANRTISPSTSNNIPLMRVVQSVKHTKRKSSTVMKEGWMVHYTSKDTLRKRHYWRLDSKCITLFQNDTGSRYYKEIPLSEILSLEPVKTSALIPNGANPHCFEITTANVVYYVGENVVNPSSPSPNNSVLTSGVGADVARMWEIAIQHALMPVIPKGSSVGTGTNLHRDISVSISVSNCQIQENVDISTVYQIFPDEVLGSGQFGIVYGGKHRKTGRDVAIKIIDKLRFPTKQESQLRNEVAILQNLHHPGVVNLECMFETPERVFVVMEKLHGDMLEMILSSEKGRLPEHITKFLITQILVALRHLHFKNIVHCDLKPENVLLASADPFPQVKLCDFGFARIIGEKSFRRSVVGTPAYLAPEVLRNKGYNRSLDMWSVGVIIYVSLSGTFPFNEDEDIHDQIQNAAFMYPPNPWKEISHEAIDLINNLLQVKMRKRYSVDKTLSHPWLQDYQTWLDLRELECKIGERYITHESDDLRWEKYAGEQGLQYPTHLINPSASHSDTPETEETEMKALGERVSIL

[6] = target: Tyrosine-protein kinase receptor UFO (Homo sapiens) (UniProt P30530); test: Selectivity interaction (KinomeScan (DiscoverX)) EUB0000607a AXL; settings: at 10 µM
Sequence of Tyrosine-protein kinase receptor UFO (Homo sapiens) (P30530 whole entry): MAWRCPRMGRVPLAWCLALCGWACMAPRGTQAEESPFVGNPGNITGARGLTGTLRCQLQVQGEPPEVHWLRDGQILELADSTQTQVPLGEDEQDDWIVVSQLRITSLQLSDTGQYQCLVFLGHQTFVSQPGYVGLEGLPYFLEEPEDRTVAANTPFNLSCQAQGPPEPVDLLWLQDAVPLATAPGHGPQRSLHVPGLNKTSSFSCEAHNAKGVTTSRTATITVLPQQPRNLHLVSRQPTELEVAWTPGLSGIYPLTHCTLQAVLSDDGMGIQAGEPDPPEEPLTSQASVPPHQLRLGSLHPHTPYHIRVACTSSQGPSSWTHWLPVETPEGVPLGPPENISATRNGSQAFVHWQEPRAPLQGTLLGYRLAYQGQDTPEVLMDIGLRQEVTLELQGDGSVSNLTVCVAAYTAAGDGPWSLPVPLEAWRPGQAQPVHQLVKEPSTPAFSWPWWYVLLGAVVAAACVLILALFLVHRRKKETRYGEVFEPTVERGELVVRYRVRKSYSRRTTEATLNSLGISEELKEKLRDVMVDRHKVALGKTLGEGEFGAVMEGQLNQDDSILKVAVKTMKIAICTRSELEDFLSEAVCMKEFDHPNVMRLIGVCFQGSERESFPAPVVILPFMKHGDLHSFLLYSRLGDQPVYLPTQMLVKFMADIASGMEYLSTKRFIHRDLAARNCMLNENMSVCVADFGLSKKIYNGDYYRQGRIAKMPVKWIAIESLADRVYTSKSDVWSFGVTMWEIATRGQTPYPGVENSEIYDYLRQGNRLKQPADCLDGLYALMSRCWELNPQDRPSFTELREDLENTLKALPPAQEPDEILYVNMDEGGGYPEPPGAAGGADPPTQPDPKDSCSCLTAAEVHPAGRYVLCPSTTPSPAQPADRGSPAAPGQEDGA

[7] = target: High affinity nerve growth factor receptor (Homo sapiens, UniProt P04629); test: Selectivity interaction (SelectScreen profiling (Invitrogen)) EUB0000607a NTRK1; settings: at 2 µM
Sequence of High affinity nerve growth factor receptor (P04629 33-796 limits assumed): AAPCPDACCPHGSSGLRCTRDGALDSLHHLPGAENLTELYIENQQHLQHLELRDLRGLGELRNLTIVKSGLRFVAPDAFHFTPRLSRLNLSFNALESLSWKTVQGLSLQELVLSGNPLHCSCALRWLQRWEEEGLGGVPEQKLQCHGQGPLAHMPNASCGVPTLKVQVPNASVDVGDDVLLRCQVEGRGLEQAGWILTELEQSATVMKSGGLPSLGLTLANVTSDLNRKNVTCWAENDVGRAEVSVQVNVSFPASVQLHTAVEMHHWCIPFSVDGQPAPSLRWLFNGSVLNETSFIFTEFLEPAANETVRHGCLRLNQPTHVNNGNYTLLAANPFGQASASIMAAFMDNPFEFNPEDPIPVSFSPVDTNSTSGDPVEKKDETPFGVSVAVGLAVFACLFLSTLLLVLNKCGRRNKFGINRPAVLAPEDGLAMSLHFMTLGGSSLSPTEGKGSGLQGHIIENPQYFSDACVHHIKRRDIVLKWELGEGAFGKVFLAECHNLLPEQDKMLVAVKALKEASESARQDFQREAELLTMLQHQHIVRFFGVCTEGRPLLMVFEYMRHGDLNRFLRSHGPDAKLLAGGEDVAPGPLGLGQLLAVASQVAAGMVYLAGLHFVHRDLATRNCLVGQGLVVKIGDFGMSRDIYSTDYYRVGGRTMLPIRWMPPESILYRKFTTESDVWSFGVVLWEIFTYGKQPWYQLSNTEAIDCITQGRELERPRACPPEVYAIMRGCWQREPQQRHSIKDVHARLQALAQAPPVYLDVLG

[8] = system: Tyrosine-protein kinase ABL1 (Homo sapiens), P00519 [H396P]; settings: at 10 µM
[9] = target: T3, Myotonin-protein kinase (Homo sapiens) (UniProt Q09013); test: Selectivity interaction (KinomeScan (DiscoverX)) EUB0000092b DMPK; settings: at 10 µM
T3 sequence (whole entry): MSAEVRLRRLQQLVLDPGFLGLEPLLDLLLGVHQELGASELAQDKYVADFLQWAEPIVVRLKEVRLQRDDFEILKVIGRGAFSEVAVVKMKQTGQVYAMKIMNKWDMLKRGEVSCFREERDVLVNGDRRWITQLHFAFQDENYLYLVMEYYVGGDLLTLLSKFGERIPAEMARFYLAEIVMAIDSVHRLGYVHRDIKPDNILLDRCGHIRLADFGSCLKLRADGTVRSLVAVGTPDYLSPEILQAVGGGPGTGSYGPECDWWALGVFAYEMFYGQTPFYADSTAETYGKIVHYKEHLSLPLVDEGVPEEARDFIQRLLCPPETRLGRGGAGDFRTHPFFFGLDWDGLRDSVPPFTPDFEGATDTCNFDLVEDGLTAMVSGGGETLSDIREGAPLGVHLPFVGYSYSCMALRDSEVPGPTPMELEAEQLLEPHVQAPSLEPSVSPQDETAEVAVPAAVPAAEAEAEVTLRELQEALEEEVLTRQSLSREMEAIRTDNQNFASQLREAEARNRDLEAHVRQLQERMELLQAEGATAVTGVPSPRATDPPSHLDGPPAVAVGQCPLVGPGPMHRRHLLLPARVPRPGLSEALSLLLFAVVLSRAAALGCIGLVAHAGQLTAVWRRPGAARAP

[10] = target: SRSF protein kinase 3 (Homo sapiens) (UniProt Q9UPE1); test: Selectivity interaction (Ambit KINOMEscan and KiNATiv profiling in Jurkat cells) EUB0000090b SRPK3; assay type: cell-based; settings: at 1 µM
Sequence of SRSF protein kinase 3 (Homo sapiens) (Q9UPE1 whole entry): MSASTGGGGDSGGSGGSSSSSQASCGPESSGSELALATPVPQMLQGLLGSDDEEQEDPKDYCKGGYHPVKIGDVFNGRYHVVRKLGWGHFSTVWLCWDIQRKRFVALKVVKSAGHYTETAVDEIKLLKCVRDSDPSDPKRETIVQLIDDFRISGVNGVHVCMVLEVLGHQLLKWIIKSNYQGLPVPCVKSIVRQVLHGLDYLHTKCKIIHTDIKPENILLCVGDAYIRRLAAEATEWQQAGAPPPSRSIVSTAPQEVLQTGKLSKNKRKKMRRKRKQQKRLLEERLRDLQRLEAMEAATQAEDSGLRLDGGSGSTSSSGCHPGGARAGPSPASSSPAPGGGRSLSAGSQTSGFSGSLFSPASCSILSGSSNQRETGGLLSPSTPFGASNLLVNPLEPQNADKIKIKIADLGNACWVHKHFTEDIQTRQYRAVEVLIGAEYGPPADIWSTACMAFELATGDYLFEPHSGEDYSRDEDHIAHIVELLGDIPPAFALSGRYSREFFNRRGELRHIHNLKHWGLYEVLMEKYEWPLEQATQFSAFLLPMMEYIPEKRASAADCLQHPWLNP

`COc1cc(N(C)c2ccnc3ccc(C(F)(F)F)cc23)cc(OC)c1OC` showed a % binding [1] of 90%.
Molecule `CNCCN1CCC(c2cc(CN(C)C(=O)c3cccc(Oc4ccccc4)c3)ccn2)CC1` has a % activity [2] greater than 90%.
With `Nc1cnc(N2CCc3cc(S(=O)(=O)Nc4c(F)cc(Cl)cc4F)cc(N4CCCC4=O)c32)nc1` [TP-020n] the % of control [3] was 88%.
For `C=CC(=O)Nc1cccc(C(=O)Nc2ccc(Nc3cc(-c4[nH]c(SC)nc4C)ccn3)cc2)c1`, the % of control ([4]; at 1 µM) was 92% and the % of control ([4]; at 5 µM) was 70%.
`N#Cc1cccc(-c2c[nH]c3ncnc(N4CCOCC4)c23)c1` gave a % of control [5] of 100%.
With `CNC(=O)Nc1ccc(-c2nc(N3CC4CCC(C3)O4)c3cnn(C4CCC5(CC4)OCCO5)c3n2)cc1` the % of control [6] was 88% and the % of inhibition [7] was 7%.
Work on `CCN(CC)CCCCNc1ncc2cc(-c3cc(OC)cc(OC)c3)c(NC(=O)NC(C)(C)C)nc2n1` yielded a % of control [8] of 100%.
`CCC(=O)N1CCN(c2ccc(-n3c(=O)ccc4cnc5ccc(-c6cnc7ccccc7c6)cc5c43)cc2C(F)(F)F)CC1` gave a % of control [9] of 77%.
`CN(C)C/C=C/C(=O)Nc1ccc(C(=O)N2CCCC(Nc3ncc(Cl)c(-c4c[nH]c5ccccc45)n3)C2)cc1` (stereo unspecified) was tested, and the % of control [10] was 93%.

From ChEMBL document CHEMBL5465560, “Selectivity Literature for EUbOPEN Chemogenomic Library” (2024)
